For the test, the target named is T1, mTOR (Homo sapiens, UniProt P42345).
T1 construct: FLAG; made in house
The test can be described thus: In Vitro mTOR Kinase Assay (Echo), Test (a)(ii). Conditions: table of enzyme assay Test (a)(ii); read-out: Test (a)(ii) IC50. The class given is biochemical. The method in brief: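 AlphaScreen read-out: biotinylated substrate phosphorylation was detected with anti-p70 S6K (T389) 1A5 antibody, Protein A acceptor and streptavidin donor beads after overnight dark incubation at room temperature. Enzyme was FLAG-mTOR 1362-2549 from stable HEK293 cells.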

T1 sequence (P42345 1362-2549): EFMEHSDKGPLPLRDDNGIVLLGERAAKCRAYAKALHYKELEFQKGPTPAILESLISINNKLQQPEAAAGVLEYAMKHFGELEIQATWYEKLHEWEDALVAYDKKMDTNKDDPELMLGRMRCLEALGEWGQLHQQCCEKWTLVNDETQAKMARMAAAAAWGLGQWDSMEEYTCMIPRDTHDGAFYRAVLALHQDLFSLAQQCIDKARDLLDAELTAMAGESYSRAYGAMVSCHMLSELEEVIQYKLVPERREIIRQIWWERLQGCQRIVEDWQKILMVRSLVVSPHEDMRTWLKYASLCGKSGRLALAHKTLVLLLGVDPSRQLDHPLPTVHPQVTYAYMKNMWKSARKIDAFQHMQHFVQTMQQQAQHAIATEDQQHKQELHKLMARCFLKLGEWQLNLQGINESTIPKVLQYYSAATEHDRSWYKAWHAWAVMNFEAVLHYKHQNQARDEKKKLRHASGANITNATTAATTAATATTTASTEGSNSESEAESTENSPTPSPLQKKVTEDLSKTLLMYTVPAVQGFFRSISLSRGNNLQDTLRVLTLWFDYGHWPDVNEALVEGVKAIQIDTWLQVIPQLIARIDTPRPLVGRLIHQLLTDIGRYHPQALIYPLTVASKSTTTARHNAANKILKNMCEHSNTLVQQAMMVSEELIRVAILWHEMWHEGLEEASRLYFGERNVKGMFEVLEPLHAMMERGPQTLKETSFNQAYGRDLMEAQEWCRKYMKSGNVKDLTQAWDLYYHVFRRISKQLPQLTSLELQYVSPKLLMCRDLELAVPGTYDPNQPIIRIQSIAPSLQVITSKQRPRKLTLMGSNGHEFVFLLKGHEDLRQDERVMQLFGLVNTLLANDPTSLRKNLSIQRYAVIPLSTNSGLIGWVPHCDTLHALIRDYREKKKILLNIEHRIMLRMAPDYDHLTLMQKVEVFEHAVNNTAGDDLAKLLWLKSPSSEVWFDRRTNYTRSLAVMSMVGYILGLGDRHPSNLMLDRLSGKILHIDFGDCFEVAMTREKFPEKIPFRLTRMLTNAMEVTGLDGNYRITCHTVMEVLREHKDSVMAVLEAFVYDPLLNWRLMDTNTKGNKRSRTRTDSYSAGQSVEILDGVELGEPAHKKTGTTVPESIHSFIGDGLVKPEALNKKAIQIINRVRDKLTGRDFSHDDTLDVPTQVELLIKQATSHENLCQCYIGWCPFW

Turning to `C[C@H]1COCCN1c1cc(C2(S(=O)(=O)c3ccccc3)CC2)nc(-c2ccc(NC(=O)Nc3cnn(C)c3)cc2)n1` [Example 36br, 1-[4-[4-[1-(benzenesulfonyl)cyclopropyl]-6-[(3S)-3-methylmorpholin-4-yl]pyrimidin-2-yl]phenyl]-3-(1-methylpyrazol-4-yl)urea], the IC50 stood at 1.88 nM.
Turning to `CNC(=O)Nc1ccc(-c2nc(N3CCOC[C@@H]3C)cc(C3(S(=O)(=O)c4ccccc4)CCC3)n2)cc1` [Example 36bu, 1-[4-[4-[1-(benzenesulfonyl)cyclobutyl]-6-[(3S)-3-methylmorpholin-4-yl]pyrimidin-2-yl]phenyl]-3-methylurea], the half-maximal inhibitory concentration (IC50) was found to be 1.18 nM.
For the molecule `C[C@H]1COCCN1c1cc(C2(S(=O)(=O)c3ccccc3)CCC2)nc(-c2ccc(NC(=O)Nc3cnn(C)c3)cc2)n1` [Example 36bv, 1-[4-[4-[1-(benzenesulfonyl)cyclobutyl]-6-[(3S)-3-methylmorpholin-4-yl]pyrimidin-2-yl]phenyl]-3-(1-methylpyrazol-4-yl)urea], the half-inhibitory concentration (IC50) worked out at 2.64 nM.
Then `C[C@H]1COCCN1c1cc(C2(S(=O)(=O)c3ccccc3)CCCC2)nc(-c2ccc(NC(=O)NC3CC3)cc2)n1` [Example 36bw, 1-[4-[4-[1-(benzenesulfonyl)cyclopentyl]-6-[(3S)-3-methylmorpholin-4-yl]pyrimidin-2-yl]phenyl]-3-cyclopropylurea], with 9.09 nM.
With `C[C@H]1COCCN1c1cc(C2(S(=O)(=O)c3ccccc3)CCCC2)nc(-c2ccc(NC(=O)NCCO)cc2)n1` [Example 36bx, 1-[4-[4-[1-(benzenesulfonyl)cyclopentyl]-6-[(3S)-3-methylmorpholin-4-yl]pyrimidin-2-yl]phenyl]-3-(2-hydroxyethyl)urea], the IC50 was 2.69 nM.
As for `C[C@H]1COCCN1c1cc(C2(S(=O)(=O)c3ccccc3)CCCC2)nc(-c2ccc(NC(=O)NCCCO)cc2)n1` [Example 36by, 1-[4-[4-[1-(benzenesulfonyl)cyclopentyl]-6-[(3S)-3-methylmorpholin-4-yl]pyrimidin-2-yl]phenyl]-3-(3-hydroxypropyl)urea], the IC50 amounted to 12 nM.
With `C[C@H]1COCCN1c1cc(C2(S(=O)(=O)c3ccccc3)CCCC2)nc(-c2ccc(NC(=O)NCCC#N)cc2)n1` [Example 36bz, 1-[4-[4-[1-(benzenesulfonyl)cyclopentyl]-6-[(3S)-3-methylmorpholin-4-yl]pyrimidin-2-yl]phenyl]-3-(2-cyanoethyl)urea], the IC50 turned out to be 14.3 nM.
With `C[C@H]1COCCN1c1cc(C2(S(=O)(=O)CCCO)CC2)nc(-c2ccc(NC(=O)NCc3ncc[nH]3)cc2)n1` [Example 36c, 1-[4-[4-[1-(3-hydroxypropylsulfonyl)cyclopro-pyl]-6-[(3S)-3-methylmorpholin-4-yl]pyrimidin-2-yl]phenyl]-3-(1H-imidazol-2-ylmethyl)urea], the IC50 amounted to 114 nM.
Then `CNC(=O)Nc1ccc(-c2nc(N3CCOC[C@@H]3C)cc(C3(S(=O)(=O)CCCO)CCOCC3)n2)cc1` [Example 36ca, 1-[4-[4-[4-(3-hydroxypropylsulfonyl)oxan-4-yl]-6-[(3S)-3-methylmorpholin-4-yl]pyrimidin-2-yl]phenyl]-3-methylurea], with 310 nM.
For `CCNC(=O)Nc1ccc(-c2nc(N3CCOC[C@@H]3C)cc(C3(S(=O)(=O)CCCO)CCOCC3)n2)cc1` [Example 36cb, 1-ethyl-3-[4-[4-[4-(3-hydroxypropylsulfonyl)oxan-4-yl]-6-[(3S)-3-methylmorpholin-4-yl]pyrimidin-2-yl]phenyl]urea], the IC50 came to 163 nM.
As for `C[C@H]1COCCN1c1cc(C2(S(=O)(=O)CCCO)CCOCC2)nc(-c2ccc(NC(=O)NC3CC3)cc2)n1` [Example 36cc, 3-cyclopropyl-1-[4-[4-[4-(3-hydroxypropylsulfonyl)oxan-4-yl]-6-[(3S)-3-methylmorpholin-4-yl]pyrimidin-2-yl]phenyl]urea], the IC50 is 129 nM.
With `C[C@H]1COCCN1c1cc(C2(S(=O)(=O)CCCO)CCOCC2)nc(-c2ccc(NC(=O)NC3CCC3)cc2)n1` [Example 36cd, 3-cyclobutyl-1-[4-[4-[4-(3-hydroxypropylsulfonyl)oxan-4-yl]-6-[(3S)-3-methylmorpholin-4-yl]pyrimidin-2-yl]phenyl]urea], the IC50 was determined as 147 nM.
On to `C[C@H]1COCCN1c1cc(C2(S(=O)(=O)CCCO)CCOCC2)nc(-c2ccc(NC(=O)NCCC#N)cc2)n1` [Example 36ce, 3-(2-cyanoethyl)-1-[4-[4-[4-(3-hydroxypropylsulfonyl)oxan-4-yl]-6-[(3S)-3-methylmorpholin-4-yl]pyrimidin-2-yl]phenyl]urea], for which the IC50 was determined as 420 nM.
Take `CCCNC(=O)Nc1ccc(-c2nc(N3CCOC[C@@H]3C)cc(C3(S(=O)(=O)CCCO)CCOCC3)n2)cc1` [Example 36cf, 3-[4-[4-[4-(3-hydroxypropylsulfonyl)oxan-4-yl]-6-[(3S)-3-methylmorpholin-4-yl]pyrimidin-2-yl]phenyl]-1-propylurea]: the IC50 worked out at 286 nM.
With `C[C@H]1COCCN1c1cc(C2(S(=O)(=O)CCCO)CCOCC2)nc(-c2ccc(NC(=O)NCCO)cc2)n1` [Example 36cg, 3-(2-hydroxyethyl)-1-[4-[4-[4-(3-hydroxypropylsulfonyl)oxan-4-yl]-6-[(3S)-3-methylmorpholin-4-yl]pyrimidin-2-yl]phenyl]urea], the IC50 is 136 nM.
`C[C@H]1COCCN1c1cc(C2(S(=O)(=O)CCCO)CCOCC2)nc(-c2ccc(NC(=O)Nc3cnn(C)c3)cc2)n1` [Example 36ch, 1-[4-[4-[4-(3-hydroxypropylsulfonyl)oxan-4-yl]-6-[(3S)-3-methylmorpholin-4-yl]pyrimidin-2-yl]phenyl]-3-(1-methylpyrazol-4-yl)urea]: the IC50 stood at 208 nM.
As for `C[C@H]1COCCN1c1cc(C2(S(=O)(=O)CCCO)CCOCC2)nc(-c2ccc(NC(=O)Nc3nccs3)cc2)n1` [Example 36ci, 1-[4-[4-[4-(3-hydroxypropylsulfonyl)oxan-4-yl]-6-[(3S)-3-methylmorpholin-4-yl]pyrimidin-2-yl]phenyl]-3-(1,3-thiazol-2-yl)urea], the IC50 came to 38.6 nM.
Consider `C[C@H]1COCCN1c1cc(C2(S(=O)(=O)CCCO)CC2)nc(-c2ccc(NC(=O)Nc3nccs3)cc2)n1` [Example 36cj, 1-[4-[4-[1-(3-hydroxypropylsulfonyl)cyclopropyl]-6-[(3S)-3-methylmorpholin-4-yl]pyrimidin-2-yl]phenyl]-3-(1,3-thiazol-2-yl)urea], for which the IC50 amounted to 3.33 nM.
On to `C[C@H]1COCCN1c1cc(C2(S(=O)(=O)CCCO)CC2)nc(-c2ccc(NC(=O)N(C)C3CC3)cc2)n1` [Example 36ck, 1-cyclopropyl-3-[4-[4-[1-(3-hydroxypropylsulfonyl)cyclopropyl]-6-[(3S)-3-methylmorpholin-4-yl]pyrimidin-2-yl]phenyl]-1-methylurea], for which the IC50 came out at 2620 nM.
Take `C[C@H]1COCCN1c1cc(C2(S(=O)(=O)CCCO)CC2)nc(-c2ccc(NC(=O)NC3(C)CC3)cc2)n1` [Example 36cl, 1-[4-[4-[1-(3-hydroxypropylsulfonyl)cyclopropyl]-6-[(3S)-3-methylmorpholin-4-yl]pyrimidin-2-yl]phenyl]-3-(1-methylcyclopropyl)urea]: the IC50 amounted to 68.1 nM.
With `C[C@H]1COCCN1c1cc(C2(S(=O)(=O)CCCO)CC2)nc(-c2ccc(NC(=O)NCC(F)F)cc2)n1` [Example 36cm, 3-(2,2-difluoroethyl)-1-[4-[4-[1-(3-hydroxypropylsulfonyl)cyclopropyl]-6-[(3S)-3-methylmorpholin-4-yl]pyrimidin-2-yl]phenyl]urea], the IC50 was 9.46 nM.
Consider `C[C@H]1COCCN1c1cc(C2(S(=O)(=O)CCCO)CC2)nc(-c2ccc(NC(=O)NC(C)(C)C)cc2)n1` [Example 36cn, 3-tert-butyl-1-[4-[4-[1-(3-hydroxypropylsulfonyl)cyclopropyl]-6-[(3S)-3-methylmorpholin-4-yl]pyrimidin-2-yl]phenyl]urea], for which the IC50 was found to be 85.8 nM.
Regarding `C[C@H]1COCCN1c1cc(C2(S(=O)(=O)CCCO)CC2)nc(-c2ccc(NC(=O)NC#N)cc2)n1` [Example 36co, 3-cyano-1-[4-[4-[1-(3-hydroxypropylsulfonyl)cyclopropyl]-6-[(3S)-3-methylmorpholin-4-yl]pyrimidin-2-yl]phenyl]urea], the IC50 was found to be 1620 nM.
`C[C@H]1COCCN1c1cc(C2(S(=O)(=O)CCCO)CC2)nc(-c2ccc(NC(=O)N3CCC(O)C3)cc2)n1` (stereo partly drawn) [Example 36cp, 3-hydroxy-N-[4-[4-[1-(3-hydroxypropylsulfonyl)cyclopropyl]-6-[(3S)-3-methylmorpholin-4-yl]pyrimidin-2-yl]phenyl]pyrrolidine-1-carboxamide]: the IC50 came out at 1260 nM.
With `C[C@H]1COCCN1c1cc(C2(S(=O)(=O)CCCO)CC2)nc(-c2ccc(NC(=O)NCCS(C)(=O)=O)cc2)n1` [Example 36cq, 1-[4-[4-[1-(3-hydroxypropylsulfonyl)cyclopropyl]-6-[(3S)-3-methylmorpholin-4-yl]pyrimidin-2-yl]phenyl]-3-(2-methylsulfonylethyl)urea], the IC50 was determined as 114 nM.
Turning to `C[C@H]1COCCN1c1cc(C2(S(=O)(=O)CCCO)CC2)nc(-c2ccc(NC(=O)NC3CCS(=O)(=O)C3)cc2)n1` (stereo partly drawn) [Example 36cr, 3-(1,1-dioxothiolan-3-yl)-1-[4-[4-[1-(3-hydroxypropylsulfonyl)cyclopropyl]-6-[(3S)-3-methylmorpholin-4-yl]pyrimidin-2-yl]phenyl]urea], the IC50 came out at 43.5 nM.
In the case of `C[C@H]1COCCN1c1cc(C2(S(=O)(=O)CCCO)CC2)nc(-c2ccc(NC(=O)NCC(=O)N(C)C)cc2)n1` [Example 36cs, 2-[[4-[4-[1-(3-hydroxypropylsulfonyl)cyclopropyl]-6-[(3S)-3-methylmorpholin-4-yl]pyrimidin-2-yl]phenyl]carbamoylamino]-N,N-dimethylactamide], the IC50 came out at 1170 nM.
As to `C[C@H]1COCCN1c1cc(C2(S(=O)(=O)c3ccccn3)CC2)nc(-c2ccc(NC(=O)Nc3ncns3)cc2)n1` [Example 36ct, 1-[4-[4-[(3S)-3-methylmorpholin-4-yl]-6-(1-pyridin-2-ylsulfonylcyclopropyl)pyrimidin-2-yl]phenyl]-3-(1,2,4-thiadiazol-5-yl)urea], the IC50 turned out to be 1.57 nM.

A word on the IC50: it is the concentration needed to halve the response being measured.

The values above are taken from patent US20090018134A1, “Compounds - 945” (AstraZeneca AB, priority 2007, published 2009).
